{
  "source": "patent US9724537B2",
  "about": "“Abnormal electrical conduction blocking apparatus using photodynamic therapy (PDT)” (Keio University, priority 2006, dated 2017)",
  "type_in_all_cases": "cell-based",
  "key": {"[1]": {"system": "rat cardiac muscle cells in primary culture", "test": "PDT cell lethality (CCK-8) in cardiac muscle cells in primary culture", "method": "The relationship between the photosensitizer concentration and the cell lethality and the laser output required to induce a cell death were investigated using rat cardiac muscle cells in primary culture.\nCardiac muscle cells in primary culture were purchased from Cell Garage Co., Ltd. as an extract from the rat ventricular muscle. As a medium, D-MEM/F12+10% FBS was used.\nCardiac muscle cells in primary culture were purchased in suspension and seeded on a 96-well microplate. Cells were cultured at 37° C. under 5% CO2, and cells on days 3 and 7 of culture were used. The cardiac muscle cells in primary culture were pulsatile, and pulsations among cells were synchronizing.\nCardiac muscle cells in primary culture were adjusted to a density of 2.0×10^4 cells/well. As a photosensitizer talaporfin sodium was dissolved in a medium at various concentrations and added at a concentration of 0.1 ml/well. After 1 to 2 h of loading, laser irradiation was performed, and the medium was replaced after the completion of irradiation.\nAt this time, a 0.5-cm^2 irradiation field (=area of well) was irradiated with a continuous semiconductor laser beam (peak wavelength, 670.8 nm) under various conditions.\n(§1) After laser irradiation, 0.01 ml of Cell Counting Kit-8 (Dojindo Laboratories, hereinafter referred to as CCK-8) was added to the medium in each well, the plate was incubated for 2 h, and the absorbance was measured to calculate the cell lethality. Six samples were examined\nThe experimental conditions were as follows.\n(i) Cells on day 3 of culture\nUsed cells: cells on day 3 of culture\nAgent concentrations: 5, 10, 15 μg/ml\nLaser intensity: 150 mW/cm^2\nTotal energy density: 1, 2, 3, 5 J/cm^2\n(ii) Cells on day 7 of culture\nUsed cells: cells on day 7 of culture\nAgent concentrations: 20, 25, 30 μg/ml\nTotal energy density: 3 J/cm^2"}, "[2]": {"system": "cultured cardiac muscle cells derived from an SD rat", "test": "PDT cell lethality vs photosensitizer concentration, loading time and total dose (CCK-8)", "settings": "for cell lethality at 2 h after irradiation: loading 0 to 120 min, 5, 10, 15 J/cm^2", "method": "Using cultured cardiac muscle cells derived from an SD rat, the relationship of the photosensitizer concentration, the photosensitizer loading time, and the cell lethality and the laser output required to induce cell death were examined\nCultured cardiac muscle cells derived from an SD rat were purchased from Cell Garage Co., Ltd. D-MEM/F12+10% FBS was used as a medium.\n2.2 to 2.3×10^5 cells/ml of cardiac muscle cells in suspension were seeded on a collagen-coated 96-well plate at 0.1 ml/well (2.2 to 2.3×10^4 cells/well) and cultured in an incubator (37° C., CO2 concentration 5%) for six to seven days.\nAt this time, talaporfin sodium as a photosensitizer was dissolved in a medium at 5, 15, or 30 μg/ml. Cardiac muscle cells were loaded with talaporfin sodium for 0, 30, 60, or 120 min and irradiated with a laser beam. Laser irradiation was performed using a continuous semiconductor laser beam (peak wavelength, 670.8 nm; power density, 150 mW/cm^2) on a 0.5-cm^2 irradiation field (=area of a well) at 5, 10, and 15 J/cm^2.\nas §1, with “absorbance at 450 nm” for “absorbance”, “The cell lethality was calculated based on the absorbance without performing laser irradiation as 100%.” for “Six samples were examined”"}, "[3]": {"system": "cultured cardiac muscle cells derived from an SD rat", "test": "Changes in intracellular Ca^2+ concentration during PDT (Fluo-4AM)", "method": "Intracellular Ca^2+ concentration changes in cells on day 1 after seeding were measured with the four protocols described later. Cultured cardiac muscle cells derived from an SD rat were used. As a medium for cell culture, D-MEM/F12+10% FBS was used. Before subjected to the experiment, cardiac muscle cells in suspension at 1.6×10^5 cells/ml were seeded on a 24-well plate with a glass bottom at 0.5 ml/well (8.0×10^4 cells/well) and cultured in an incubator (37° C., 5% CO2) for one day.\nFurther, MEM+10% FBS containing 2.2 mM Ca^2+ was used as a normal medium, and SMEM+10% FBS containing 364 μM Ca^2+ was used as a Ca^2+-free medium.\nIntracellular Ca^2+ concentrations were measured using Fluo-4AM (Molecular Probe). 55 μl of DMSO (Dojindo Laboratories, pure solvent for fluorescence analysis) was added to 50 μg of Fluo-4AM, 10 μl of this mixture was added to 1 ml of a medium for measurement (normal medium or Ca^2+-free medium) at 8 μM, and cardiac muscle cells were brought into loading for 30 min. Fluo4 was excited with Ar laser (wavelength, 488 nm), and a fluorescence image at 510 to 560 nm was obtained with a CCD camera (Nippon Roper Co., Ltd., Retiga 2000R). 10 photos were taken with an exposure time of 10 s, and then PDT was performed by irradiation with a semiconductor laser beam (peak wavelength, 670.8 nm; power, 150 mW/cm^2; continuous light; total energy density, 5 or 10 J/cm^2), and a total of 40 photos (for approx. 408 s) were continuously taken during and after PDT. The image analysis was performed using Image J, an image analysis software, and changes in intracellular cumulative fluorescence on each slide were calculated. Assuming the initial cumulative fluorescence F0 as 1, fluorescence changes were calculated by F/F0. Further, cells were incubated at temperature of 37° C. using a hot plate (Tokai Hit) during observation.\nProtocol 1 (Extracellular Distribution of Talaporfin Sodium, Extracellular Normal Ca^2+ Concentration)\n(§2) Fluo-4AM (normal medium solution) is loaded with each well at room temperature for 30 min, then talaporfin sodium (normal medium) adjusted beforehand to various concentrations is added at 0.5 ml/well, and observation is performed immediately after addition.\nProtocol 2 (Intracellular Distribution of Talaporfin Sodium, Extracellular Normal Ca^2+ Concentration)\nas §2, with “performed” for “performed immediately”, “the medium is replaced with a normal medium after 30 min of loading.” for “addition.”\nProtocol 3 (Extracellular Distribution of Talaporfin Sodium, No Extracellular Ca^2+) […]"}},
  "note": "Where “and” joins values, the source holds several entries; their conditions need not be identical. Equal values may be shown once.",
  "data": [
    {"smiles": "C=Cc1c(C)c2cc3nc(c(CC(=O)N[C@@H](CC(=O)O)C(=O)O)c4[nH]c(cc5nc(cc1[nH]2)C(C)=C5CC)c(C)c4C(=O)O)[C@@H](CCC(=O)O)[C@@H]3C", "note": "[talaporfin sodium, mono-L-aspartyl chlorine 6]", "values": [
      {"measurement": "cell lethality at 5 J/cm^2 vs 3 J/cm^2", "setting": "[1]; cells on day 3 of culture, 15 μg/ml", "result": "the cell lethality decreased at the total energy density of laser irradiation of 5 J/cm^2 as compared with that at 3 J/cm^2"},
      {"measurement": "cell lethality vs total energy density", "setting": "[1]; cells on day 3 of culture, high talaporfin sodium concentration, 1, 2, 3, 5 J/cm^2, FIG. 10", "result": "the greater the total energy density of laser irradiation was, the higher cell lethality was"},
      {"measurement": "cell lethality, day 7 vs day 3 cells", "setting": "[1]; cells on day 7 of culture, 20, 25, 30 μg/ml, 3 J/cm^2, FIG. 11", "result": "the cell lethality was higher than when cells on day 3 of culture were used"},
      {"measurement": "cell lethality at 2 h after irradiation", "setting": "[2]; 15 μg/ml or lower", "result": "no marked effect was observed"},
      {"measurement": "cell morphology immediately after laser beam irradiation", "setting": "[2]; 30 μg/ml, 15 J/cm^2, loading 30 min", "result": "marked changes in cell morphology, such as exfoliation and shrinkage of cells, were observed"},
      {"measurement": "cell lethality at 2 h after irradiation", "setting": "[2]; 30 μg/ml", "result": "the cell lethality markedly increased after laser beam irradiation"},
      {"measurement": "cell lethality vs loading time", "setting": "[2]; loading 0, 30, 60, 120 min, FIG. 19", "result": "loading for 30 min was most effective"},
      {"measurement": "cell morphology during and after PDT", "setting": "[3]; FIG. 23", "result": "1) swelling of the cell itself and 2) growth of “bobble” were observed and Cell morphology did not virtually change after PDT"},
      {"measurement": "change in intracellular Ca^2+ concentration during PDT", "setting": "[3]; no extracellular Ca^2+, 30 μg/ml, 10 J/cm2", "result": "the intracellular Ca^2+ concentrations hardly changed"},
      {"measurement": "change in intracellular Ca^2+ concentration during PDT", "setting": "[3]; normal extracellular Ca^2+ concentration", "result": "Rapid increases in the intracellular Ca^2+ concentrations were observed immediately after performing PDT"},
      {"measurement": "change in intracellular Ca^2+ concentration, photosensitizer outside vs inside the cell", "setting": "[3]; normal extracellular Ca^2+, 0 min loading vs 30 min loading", "result": "rapid changes in the Ca^2+ concentration were confirmed when the photosensitizer exists only outside the cell"}
    ]}
  ]
}
